Values quoted from earlier work as cited in US20220401579A1, “INCLUSION COMPLEXES OF PHARMACEUTICALS AND CYCLIC OLIGOMERS” (DISPERSOL TECHNOLOGIES, LLC, priority 2019, published 2022).
Where two headings read alike, the source gives them in different places.

Columns and labels:
[1] = for solubility in water / aqueous media (descriptive): water or aqueous media
[2] = granulate released in the proximal small intestine

COC(=O)c1ccc2c(c1)NC(=O)/C2=C(\Nc1ccc(N(C)C(=O)CN2CCN(C)CC2)cc1)c1ccccc1 [Nintedanib, 1H-Indole-6-carboxylic acid, 2,3 dihydro-3-[[[4-[methyl[(4-methyl-1-piperazinyl)acetyl]amino]phenyl]amino]phenylmethylene]-2-oxo-,methyl ester]
median Tmax (fasted): 2.00 h
median Tmax (fed): 3.98 h
increase in exposure after food intake compared to fasted conditions (fed versus fasted): approximately 20%

CNC(=O)c1cc(Oc2ccc(NC(=O)Nc3ccc(Cl)c(C(F)(F)F)c3)cc2)ccn1 [Sorafenib, 4-[4-({[4-chloro-3-(trifluoromethyl)phenyl]carbamoyl}amino)phenoxy]-N-methylpyridine-2-carboxamide]
solubility in PEG 400 (descriptive) ([1]; PEG 400): soluble
solubility in ethanol (descriptive) ([1]; ethanol): slightly soluble
solubility in water / aqueous media (descriptive) [1]: practically insoluble

CC(O)COC[C@H]1O[C@@H]2O[C@H]3[C@H](O)[C@@H](O)[C@@H](O[C@H]4[C@H](O)[C@@H](O)[C@@H](O[C@H]5[C@H](O)[C@@H](O)[C@@H](O[C@H]6[C@H](O)[C@@H](O)[C@@H](O[C@H]7[C@H](O)[C@@H](O)[C@@H](O[C@H]8[C@H](O)[C@@H](O)[C@@H](O[C@H]1[C@H](O)[C@H]2O)O[C@@H]8COCC(C)O)O[C@@H]7COCC(C)O)O[C@@H]6COCC(C)O)O[C@@H]5COCC(C)O)O[C@@H]4COCC(C)O)O[C@@H]3COCC(C)O (stereo partly drawn) [HPBCD, hydroxy propyl β cyclodextrin]
water solubility ([1]; water): > 600 mg/mL

O=C(NC[C@H]1CN(c2ccc(N3CCOCC3=O)cc2)C(=O)O1)c1ccc(Cl)s1 [Rivaroxaban, 5-Chloro-N-({(5S)-2-oxo-3-[4-(3-oxo-4-morpholinyl)phenyl]-1,3-oxazolidin-5-yl}methyl)-2-thiophenecarboxamide]
absolute bioavailability (20 mg dose, fasted state): approximately 66%
decrease in AUC compared to tablet [2]: 29%
decrease in Cmax compared to tablet [2]: 56%
solubility in organic solvents (descriptive) ([1]; organic solvents (e.g., acetone, polyethylene glycol 400)): only slightly soluble
solubility in water / aqueous media (descriptive) [1]: practically insoluble

COC(=O)c1ccc2c(c1)NC(=O)/C2=C(\Nc1ccc(N(C)C(=O)CN2CCN(C)CC2)cc1)c1ccccc1 [Nintedanib esylate, 1H-Indole-6-carboxylic acid, 2,3 dihydro-3-[[[4-[methyl[(4-methyl-1-piperazinyl)acetyl]amino]phenyl]amino]phenylmethylene]-2-oxo-,methyl ester, (3Z)-, ethanesulfonate (1:1)]
intrinsic pH of saturated solution in water ([1]; saturated solution in water): 5.7
concentration of a saturated solution in water ([1]; water): 2800 µg/mL
solubility in water / aqueous media (descriptive) [1]: soluble

CCC(C)n1ncn(-c2ccc(N3CCN(c4ccc(OCC5COC(Cn6cncn6)(c6ccc(Cl)cc6Cl)O5)cc4)CC3)cc2)c1=O (stereo not shown) [Itraconazole, 2-butan-2-yl-4-[4-[4-[4-[[2-(2,4-dichlorophenyl)-2-(1,2,4-triazol-1-ylmethyl)-1,3-dioxolan-4-yl]methoxy]phenyl]-1-piperazinyl]phenyl]-1,2,4-triazol-3-one]
solubility in alcohols (descriptive) ([1]; alcohols): very slightly soluble
solubility in dichloromethane (descriptive) ([1]; dichloromethane): freely soluble
log (n-octanol/water) partition coefficient ([1]; pH 8.1): 5.66
solubility in water / aqueous media (descriptive) [1]: insoluble
